Results reported in ChEMBL document CHEMBL1800066 (J Med Chem, 2011).
Converted amounts (≈) assume the structure as drawn. Each block holds one molecule with its values, some of them ahead of it.

Key:
[1] = Antiproliferative activity against human GTL16 cells after 72 hrs; settings: GTL 16, 72 h
[2] = biological target: T1, Hepatocyte growth factor receptor (Homo sapiens, UniProt P08581)
[3] = Half life in rat at 2 mg/kg, iv and 4 mg/kg, po; type: ADME, organism-based; settings: in vivo
[4] = Inhibition of potassium channel IKr
[5] = Plasma clearance in rat at 2 mg/kg, iv and 4 mg/kg, po; type: ADME, organism-based
[6] = biological target: Voltage-gated inwardly rectifying potassium channel KCNH2 (Homo sapiens, UniProt Q12809); experiment: Inhibition of Kv11.1 channel
[7] = Volume of distribution at steady state in rat at 2 mg/kg, iv and 4 mg/kg, po; type: ADME, organism-based; settings: in vivo, read-out: Vdss
[8] = Oral bioavailability in rat at 4 mg/kg; type: ADME, organism-based; settings: in vivo
[9] = Plasma clearance in rat at 2 mg/kg, iv; type: ADME, organism-based; set-up: dose 2 mg/kg, route intravenous
[10] = Half life in rat at 2 mg/kg, iv; type: ADME, organism-based; set-up: dose 2 mg/kg, route intravenous; settings: in vivo
[11] = Volume of distribution at steady state in rat at 2 mg/kg, iv; type: ADME, organism-based; set-up: dose 2 mg/kg, route intravenous; settings: in vivo, read-out: Vdss
[12] = Oral bioavailability in rat at 1 mg/kg; type: ADME, organism-based; settings: in vivo
[13] = Half life in rat at 1 mg/kg, iv and po; type: ADME, organism-based; set-up: dose 1 mg/kg, route oral; settings: in vivo
Rattus norvegicus = experiment: Volume of distribution at steady state in rat at 1 mg/kg, iv and po; type: ADME, organism-based; set-up: dose 1 mg/kg, route oral; settings: in vivo
[14] = Half life in rat at 0.31 mg/kg, iv and 0.62 mg/kg, po; type: ADME, organism-based; settings: in vivo
[15] = Oral bioavailability in rat at 0.62 mg/kg; type: ADME, organism-based; settings: in vivo
[16] = Volume of distribution at steady state in rat at 0.31 mg/kg, iv and 0.62 mg/kg, po; type: ADME, organism-based; settings: in vivo, read-out: Vdss
[17] = Plasma clearance in rat at 0.31 mg/kg, iv and 0.62 mg/kg, po; type: ADME, organism-based
[18] = biological target: T1, Hepatocyte growth factor receptor; experiment: Inhibition of c-MET overexpressed in human GTL-16 cells assessed as phosphorylation at C-terminal Y1349 after 2 hrs by Western blot analysis; type: cell-based
Cytochrome P450 2D6 = Cytochrome P450 2D6 (Homo sapiens, UniProt P10635); experiment: Inhibition of CYP2D6; type: ADME
[19] = Lipophilicity, log P of the compound; type: physicochemical; settings: octanol/water
[20] = Solubility of the compound at pH 7.4; type: physicochemical; settings: buffer
Cytochrome P450 2C9 = Cytochrome P450 2C9 (Homo sapiens, UniProt P11712); experiment: Inhibition of CYP2C9; type: ADME
Cytochrome P450 3A4 = Cytochrome P450 3A4 (Homo sapiens, UniProt P08684); experiment: Inhibition of CYP3A4; type: ADME

Compound: Cn1cc(-c2cnc3ccc4ccc(NS(=O)(=O)N5CCOCC5)cc4c(=O)c3c2)cn1
IC50 [1]: 11000 nM

IC50 [2]: > 10000 nM
Compound: CS(=O)(=O)Nc1ccc2c(=O)c3cc(-c4ccccc4)cnc3ccc2c1

half-life [3]: 0.5 h
clearance [5]: 40 mL/min/kg
Compound: Cn1cc(-c2cnc3ccc4ccc(NS(C)(=O)=O)cc4c(=O)c3c2)cn1
IC50 [1]: 1900 nM
IC50 [4]: 330 nM
IC50 [6]: 10100 nM

Compound: CN(C)S(=O)(=O)Nc1ccc2ccc3ncc(-c4cnn(C)c4)cc3c(=O)c2c1
IC50 [4]: > 30000 nM
IC50 [6]: > 30000 nM

Compound: CCCn1cc(-c2cnc3ccc4ccc(NS(=O)(=O)N(C)C)cc4c(=O)c3c2)cn1
IC50 [1]: 780 nM

Compound: CN(C)S(=O)(=O)Nc1ccc2ccc3ncc(-c4cnn(CC(=O)N5CCOCC5)c4)cc3c(=O)c2c1
IC50 [1]: 1700 nM

Compound: CN(C)CCCn1cc(-c2cnc3ccc4ccc(NS(=O)(=O)N(C)C)cc4c(=O)c3c2)cn1
IC50 [1]: 1100 nM

Compound: CN(C)S(=O)(=O)Nc1ccc2ccc3ncc(-c4cnn(CCCO)c4)cc3c(=O)c2c1
IC50 [1]: 370 nM

Compound: CN(C)S(=O)(=O)Nc1ccc2ccc3ncc(-c4cnn(CCF)c4)cc3c(=O)c2c1
IC50 [1]: 610 nM

Compound: CCN1CCC(n2cc(-c3cnc4ccc5ccc(NS(=O)(=O)N(C)C)cc5c(=O)c4c3)cn2)CC1
IC50 [1]: 55 nM

Compound: CN(C)S(=O)(=O)Nc1ccc2ccc3ncc(-c4cnn(-c5ccccn5)c4)cc3c(=O)c2c1
IC50 [1]: 1300 nM

Compound: Cn1cc(-c2cnc3ccc4ccc(NS(N)(=O)=O)cc4c(=O)c3c2)cn1
IC50 [1]: 990 nM
IC50 [6]: 4300 nM

Vd [7]: 2.5 L/kg
half-life [3]: 0.9 h
clearance [5]: 33.8 mL/min/kg
bioavailability [8]: 33%
Compound: CNS(=O)(=O)Nc1ccc2ccc3ncc(-c4cnn(C)c4)cc3c(=O)c2c1
IC50 [1]: 750 nM

Compound: CCN(CC)S(=O)(=O)Nc1ccc2ccc3ncc(-c4cnn(C)c4)cc3c(=O)c2c1
IC50 [1]: 2200 nM

clearance [9]: 39 mL/min/kg
half-life [10]: 0.7 h
Vd [11]: 2.4 L/kg
Compound: CN(Cc1cnccn1)S(=O)(=O)Nc1ccc2ccc3ncc(-c4cnn(C)c4)cc3c(=O)c2c1
IC50 [1]: 1100 nM
IC50 [6]: 7100 nM

Compound: CN(Cc1ccccc1)S(=O)(=O)Nc1ccc2ccc3ncc(-c4cnn(C)c4)cc3c(=O)c2c1
IC50 [1]: 50000 nM
IC50 [6]: > 30000 nM

bioavailability [12]: 29%
half-life [13]: 3.3 h
Vdss (Rattus norvegicus): 0.95 L/kg
Compound: Cn1cc(-c2cnc3ccc4ccc(NS(=O)(=O)N5CCC5)cc4c(=O)c3c2)cn1
IC50 [1]: 1100 nM

clearance [9]: 2.9 mL/min/kg
half-life [10]: 1.8 h
Vd [11]: 0.41 L/kg
Compound: Cn1cc(-c2cnc3ccc4ccc(NS(=O)(=O)N5CC(F)C5)cc4c(=O)c3c2)cn1
IC50 [1]: 2400 nM

clearance [9]: 10.7 mL/min/kg
half-life [10]: 1.3 h
Vd [11]: 1.1 L/kg
Compound: COCCCN(C)S(=O)(=O)Nc1ccc2ccc3ncc(-c4cnn(C)c4)cc3c(=O)c2c1
IC50 [1]: 1500 nM
IC50 [6]: > 30000 nM

half-life [14]: 1.2 h
bioavailability [15]: 38%
Vd [16]: 1.1 L/kg
clearance [17]: 11 mL/min/kg
Compound: CN([C@H]1CCOC1)S(=O)(=O)Nc1ccc2ccc3ncc(-c4cnn(C)c4)cc3c(=O)c2c1
IC50 [1]: 570 nM
IC50 [6]: > 30000 nM

Compound: CN(C[C@H]1COCCO1)S(=O)(=O)Nc1ccc2ccc3ncc(-c4cnn(C)c4)cc3c(=O)c2c1
IC50 [1]: 2800 nM
IC50 [2]: 14 nM
IC50 [6]: > 30000 nM
IC50 [18]: 210 nM

IC50 (Cytochrome P450 2D6): > 50000 nM
logP [19]: 3.15
half-life [3]: 0.5 h
solubility [20]: 0.5 µg/mL (≈ 1.33 µM)
clearance [5]: 24 mL/min/kg
IC50 (Cytochrome P450 2C9): > 50000 nM
bioavailability [8]: 2%
IC50 (Cytochrome P450 3A4): > 50000 nM
Compound: CS(=O)(=O)Nc1ccc2ccc3ncc(-c4ccccc4)cc3c(=O)c2c1
IC50 [1]: > 50000 nM
IC50 [6]: 290 nM

IC50 [2]: > 10000 nM
Compound: CS(=O)(=O)Nc1ccc2ccc3nccc(Cl)c3c(=O)c2c1

Compound: CN(C)S(=O)(=O)Nc1ccc2ccc3ncc(-c4cnn(CC(F)CO)c4)cc3c(=O)c2c1 (racemic)
IC50 [1]: 270 nM

Compound: COCC(F)Cn1cc(-c2cnc3ccc4ccc(NS(=O)(=O)N(C)C)cc4c(=O)c3c2)cn1 (racemic)
IC50 [1]: 54 nM
